Test results reported in patent US9775819B2, “Oral solid dosage form containing nanoparticles and process of formulating the same using fish gelatin” (R.P. SCHERER TECHNOLOGIES, LLC, priority 2009, dated 2017).

Experiment: Particle size (d50) by laser light diffraction, Malvern Mastersizer 2000
Format: physicochemical
Details: unmilled active ingredient
From the text: During step (a) of the method of the invention, the suspension may be recycled if necessary and the process of particle size reduction continued until the desired nanoparticle size of the active ingredient is obtained. The size of the nanoparticles within the nanosuspension is typically measured using well known techniques, such as laser light diffraction methodology using, e.g., a Malvern Mastersizer 2000 particle size analyzer (Malvern Instruments, Westborough Mass.). Particle size measurements are typically described using parameters such as d50, a parameter that represents the size above and below which one finds 50% of the volume of all particles, also known as the volume weighted median. Accordingly, d50 represents a median particle size value. According to the invention, the solution is milled until a d50 ranging preferably from about 1 nm to about 900 nm, more preferably from about 10 nm to about 800 nm, and most preferably from about 50 nm to about 700 nm is achieved.
An oral solid dosage form comprising the active ingredient naproxen and excipients fish gelatin as nanostabilizer (SMW fish gelatin grade from Norland Products Inc.—Example 1A; and DFG grade from Norland Products Inc.—Example 1B) and mannitol as bulking agent was prepared. An aqueous solution of 5% fish gelatin and 3% mannitol was prepared; then naproxen was added to this solution to form a suspension slurry. The suspension slurry was charged into a 600 cc chamber-size Dyno® Mill containing zirconium milling media. Naproxen concentration in the milling slurry was 15% by weight. Milling was performed on recirculating suspension for 1.5 hours using the default milling conditions for this equipment. The resultant bulk nanosuspension was discharged from the mill, and 250 mg unit doses were accurately dispensed into 0.25 mL capacity blister pockets using an IVEK pump controlled using a Digispense unit. Blister pockets were frozen in an Air Products CM2000 freezer using liquid nitrogen as coolant and a 3 minute freezing time, then held in a freezer until transfer to pre-cooled freeze-drier shelves. […]

| SMILES | d50 |
| --- | --- |
| COc1ccc2c(c1)c(CC(=O)O)c(C)n2C(=O)c1ccc(Cl)cc1 [indomethacin] | 37 μm |
| COc1ccc2cc([C@H](C)C(=O)O)ccc2c1 [naproxen] | 22 μm |
| CCOc1ccc(NC(C)=O)cc1 [phenacetin] | 83 μm |
